Where two headings read alike, the source gives them in different places. Ends that are not written are not given here. Peptide text beside a SMILES is read from it.
How the values were obtained:
[1] = target: T1, ACE2 (Homo sapiens, UniProt Q9BYF1); assay: ACE2 quenched fluorescence substrate (QFS) inhibition assay; type: biochemical; conditions: for inhibition at 0.1 µM: peptide 0.1 μM, read-out: Inhibition (%) of ACE2, AngII chimeras, 0.1 μM; for inhibition at 1 µM: peptide 1 μM, read-out: Inhibition (%) of ACE2, AngII chimeras, 1 μM
T1 sequence (Q9BYF1 18-805, species assumed): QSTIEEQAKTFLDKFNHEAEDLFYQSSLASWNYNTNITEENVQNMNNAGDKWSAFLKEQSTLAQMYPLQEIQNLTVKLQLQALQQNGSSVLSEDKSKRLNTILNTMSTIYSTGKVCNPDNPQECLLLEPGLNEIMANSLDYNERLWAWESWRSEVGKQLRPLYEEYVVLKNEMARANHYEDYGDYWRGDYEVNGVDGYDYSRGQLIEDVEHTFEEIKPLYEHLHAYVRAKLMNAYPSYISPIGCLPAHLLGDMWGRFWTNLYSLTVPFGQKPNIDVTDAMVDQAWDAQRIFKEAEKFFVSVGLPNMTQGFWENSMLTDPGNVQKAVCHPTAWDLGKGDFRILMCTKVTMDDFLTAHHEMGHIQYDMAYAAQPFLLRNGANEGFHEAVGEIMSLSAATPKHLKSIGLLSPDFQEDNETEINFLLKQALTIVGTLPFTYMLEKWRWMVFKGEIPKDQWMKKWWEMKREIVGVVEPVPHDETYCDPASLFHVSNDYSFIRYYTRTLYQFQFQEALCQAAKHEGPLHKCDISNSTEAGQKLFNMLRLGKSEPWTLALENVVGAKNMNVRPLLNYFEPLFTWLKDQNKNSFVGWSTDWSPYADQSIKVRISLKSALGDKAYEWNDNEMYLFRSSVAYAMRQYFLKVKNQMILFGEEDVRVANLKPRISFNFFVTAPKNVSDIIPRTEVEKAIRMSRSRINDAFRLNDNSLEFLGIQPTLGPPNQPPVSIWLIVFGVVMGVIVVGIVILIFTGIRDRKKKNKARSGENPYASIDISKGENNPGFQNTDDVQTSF
Method: Angiotensin converting enzyme 2 QFS assays were performed for 1 h in 50 uM QFS, 1 M NaCl, 100 mM Tris-Cl, pH 6.5 at 37∘C on a BMG LabTechnologies (Offenburg, Germany), FLUOStar Optima in a 96 well-plate. Subsequent data analysis determined the inhibition of native AngII, its analogs and C-terminal peptides compared to the ACE2 QFS substrate [MCA-APK(DNP)-OH, [Vickers et al., 2002]]. […] Three controls were included in each ACE2 QFS assay; AngII (100 and 10 μM), IHPF (100 μM) and a known ACE2 inhibitor (1 nM; Millennium Pharmaceuticals, Cambridge, MA, USA). QFS assay results were accepted when ACE2 inhibition by AngII (10 μM) was 80 ± 5%, IHPF was 65 ± –5% and the ([Qian et al., 1999]) ‘Millennium Inhibitor’ was 70 ± –5%. Acceptable coefficients of variation (CV; standard deviation/mean × 100) for sample triplicates were <7%.
A library of 40 tetrapeptides based on the four C-terminal residues of Ang II (Ile-His-Pro-Phe/IHPF) was generated and screened for ACE2 binding at 100 μM in order to identify key residues of the C-terminus of Ang II involved in binding to the ACE2 active site. […] Several substitutions (Val, Tyr, Ala, Gly, Phe, Trp, Pro, His, Ile, and Leu) were made in order to further probe the highly hydrophobic and cyclic specificity of the C-terminus of Ang II. A β-napthalene amino acid (Nth) derivative was used as a highly hydrophobic non-natural cyclic residue substitute, and Arg and Lys were substituted for histidine at the second position from the N-terminus of the tetrapeptide to determine if positive charge or other structural or positional requirements were important.

[2] = target: T1, ACE2; assay: LC–MS ACE2 proteolytic cleavage assay; type: in vitro ADME; conditions: for Cleavage (%) by ACE2, 1 μM: peptide 1 μM incubated with ACE2 at 37 °C, typically 4-5 h; for Cleavage (%) by ACE2, 1 μM / Cleavage (%) by ACE2, 10 μM: LC–MS; for Cleavage (%) by ACE2, 10 μM: peptide 10 μM incubated with ACE2 at 37 °C, typically 4-5 h (5 h)
Method: The first hour of the incubation was performed in the Fluorostar Optima plate reader in order to confirm previously observed level of inhibition, then for the remaining time the samples were transferred to small microfuge tubes and incubated in a water bath. The extent of ACE2 cleavage was assessed by LC–MS on an Agilent capillary HP1100, MSD VL3000 Ion-Trap system.

[3] = QFS assay, pH 6.5, 37 °C, 1 h, value ± spread
[4] = peptide 10 μM, QFS assay, pH 6.5, 37 °C, 1 h, value ± spread, read-out: Inhibition (%) of ACE2, AngII chimeras, 10 μM
[5] = peptide 100 μM, 50 uM QFS MCA-APK(DNP)-OH, 1 M NaCl, 100 mM Tris-Cl pH 6.5, 37 °C, 1 h, fluorescence, triplicate, read-out: ACE2 inhibition of single substitution analogs of the C-terminal of AngII (Table 1)
[6] = read-out: ACE2 inhibition of terminally modified IHPF analogs, 100 μM (Table 3), peptide 100 μM, 50 uM QFS, 1 M NaCl, 100 mM Tris-Cl pH 6.5, 37 °C, 1 h
[7] = read-out: ACE2 inhibition of terminally modified IHPF analogs, 10 μM (Table 3, in brackets), peptide 10 μM, 50 uM QFS, 1 M NaCl, 100 mM Tris-Cl pH 6.5, 37 °C, 1 h
[8] = pH 6.5, read-out: ACE2 inhibition of terminally modified IHPF analogs, 100 μM (Table 3)

Molecule | inhibition at 100 µM [1, 5] [%] | inhibition at 100 µM [1, 6] [%] | also measured
DRVYIYPF |  |  | inhibition at 0.1 µM [1, 3]: 17%; inhibition at 1 µM [1, 3]: 78 ± 2%; inhibition at 10 µM [1, 4]: 96%; Cleavage (%) by ACE2, 1 μM [2]: 85%; Cleavage (%) by ACE2, 10 μM [2]: 18 ± 1.2%
CC[C@H](C)[C@H](NC(=O)[C@H](Cc1ccc(O)cc1)NC(=O)[C@@H](NC(=O)[C@H](CCCNC(=N)N)NC(=O)[C@@H](N)CC(=O)O)C(C)C)C(=O)N[C@@H](Cc1cnc[nH]1)C(=O)N1CCC[C@H]1C(=O)N[C@@H](Cc1ccccc1)C(=O)O [Angiotensin II, reference compound] |  |  | inhibition at 0.1 µM [1, 3]: -5%; inhibition at 1 µM [1, 3]: 21 ± 6.8%; inhibition at 10 µM [1, 4]: 77 ± 2.9%; inhibition at 100 µM ([1]; peptide 100 μM, 50 uM QFS, 1 M NaCl, 100 mM Tris-Cl pH 6.5, 37 °C, 1 h, triplicate, read-out: Inhibition (%) of ACE2, single and multiple residue substitution analogs (Table 2)): 97%; inhibition at 100 µM ([1]; peptide 100 μM, QFS assay, pH 6.5, 37 °C, 1 h, value ± spread, read-out: Inhibition (%) of ACE2, AngII chimeras, 100 μM): 99 ± 0.3%; inhibition at 10 µM ([1]; read-out: ACE2 inhibition by control, acceptance window of QFS assay): 80 ± 5%; Cleavage (%) by ACE2, 1 μM [2]: 93%; Cleavage (%) by ACE2, 10 μM ([2]; listed as D1R2V3Y4I5H6P7F8): 40 ± 2%; Cleavage (%) by ACE2, 10 μM ([2]; listed as native Ang II): 40%
DRVYVYPF |  |  | inhibition at 0.1 µM [1, 3]: 31 ± 3.5%; inhibition at 1 µM [1, 3]: 84 ± 2.7%; inhibition at 10 µM [1, 4]: 98 ± 0.3%; fold less cleavage by ACE2 compared to native Ang II ([2]; 10 μM, over 5 h): approximately 4 fold; Cleavage (%) by ACE2, 1 μM [2]: 64%; Cleavage (%) by ACE2, 10 μM [2]: 9 ± 0.3%
NC(=O)[C@H](Cc1ccccc1)NC(=O)[C@@H]1CCCN1C(=O)[C@H](Cc1c[nH]cn1)NC(=O)[C@@H]1CCCN1 [C-amidated PHPF] (H-PHPF-NH2) |  | 1 | 
CC[C@H](C)[C@H](N)C(=O)N[C@@H](Cc1c[nH]cn1)C(=O)N1CCC[C@H]1C(=O)N[C@@H](Cc1ccccc1)C(N)=O [C-amidated IHPF] (H-IHPF-NH2) |  | 18 | 
CC[C@H](C)[C@H](N)C(=O)N[C@@H](Cc1c[nH]cn1)C(=O)N[C@@H](CC(C)C)C(=O)N[C@@H](Cc1ccccc1)C(=O)O [IHLF] (H-IHLF-OH) | 0 |  | 
CC[C@H](C)[C@H](N)C(=O)N[C@@H](Cc1c[nH]cn1)C(=O)N[C@H](C(=O)N[C@@H](Cc1ccccc1)C(=O)O)[C@@H](C)CC [IHIF] (H-IHIF-OH) | 44 |  | 
CC[C@H](C)[C@H](N)C(=O)N[C@@H](Cc1c[nH]cn1)C(=O)N[C@@H](Cc1c[nH]cn1)C(=O)N[C@@H](Cc1ccccc1)C(=O)O [IHHF] (H-IHHF-OH) | 14 |  | 
N[C@@H](Cc1c[nH]cn1)C(=O)N[C@@H](Cc1c[nH]cn1)C(=O)N1CCC[C@H]1C(=O)N[C@@H](Cc1ccccc1)C(=O)O [HHPF] (H-HHPF-OH) | 12 |  | 
CC[C@H](C)[C@H](N)C(=O)NCC(=O)N1CCC[C@H]1C(=O)N[C@@H](Cc1ccccc1)C(=O)O [IGPF] (H-IGPF-OH) | 39 |  | 
CC[C@H](C)[C@H](N)C(=O)N[C@@H](Cc1ccccc1)C(=O)N1CCC[C@H]1C(=O)N[C@@H](Cc1ccccc1)C(=O)O [IFPF] (H-IFPF-OH) | 0 |  | 
NC(=O)[C@H](Cc1ccccc1)NC(=O)[C@@H]1CCCN1C(=O)[C@H](Cc1ccc(O)cc1)NC(=O)[C@@H]1CCCN1 [C-amidated PYPF] (H-PYPF-NH2) |  |  | inhibition at 100 µM [1, 8]: 33%
CC(=O)N1CCC[C@H]1C(=O)N[C@@H](Cc1ccc(O)cc1)C(=O)N1CCC[C@H]1C(=O)N[C@@H](Cc1ccccc1)C(N)=O [N-acetylated/C-amidated PYPF] (Ac-PYPF-NH2) |  |  | inhibition at 100 µM [1, 8]: 28%
CC[C@H](C)[C@H](N)C(=O)N[C@@H](Cc1c[nH]cn1)C(=O)N1CCC[C@H]1C(=O)N[C@@H](Cc1ccccc1)C(=O)O [IHPF, Ile-His-Pro-Phe, reference compound] (H-IHPF-OH) | 62 | 66 | inhibition at 10 µM [1, 7]: 22%

The next lines start with results.

inhibition at 100 µM [1, 5] [%] | inhibition at 100 µM [1, 6] [%] | Molecule | also measured
28 |  | CC[C@H](C)[C@H](N)C(=O)N[C@H](C(=O)N1CCC[C@H]1C(=O)N[C@@H](Cc1ccccc1)C(=O)O)C(C)C [IVPF] (H-IVPF-OH) | 
 | 25 | CC(=O)N1CCC[C@H]1C(=O)N[C@@H](Cc1ccc(O)cc1)C(=O)N[C@H](C(=O)N[C@@H](Cc1ccccc1)C(N)=O)C(C)C [N-acetylated/C-amidated PYVF] (Ac-PYVF-NH2) | 
 | 12 | CC(=O)N1CCC[C@H]1C(=O)N[C@@H](Cc1c[nH]cn1)C(=O)N[C@H](C(=O)N[C@@H](Cc1ccccc1)C(N)=O)C(C)C [N-acetylated/C-amidated PHVF] (Ac-PHVF-NH2) | 
 | 76 | CC(=O)N[C@H](C(=O)N[C@@H](Cc1c[nH]cn1)C(=O)N[C@H](C(=O)N[C@@H](Cc1ccccc1)C(=O)O)C(C)C)C(C)C [N-acetylated VHVF] (Ac-VHVF-OH) | inhibition at 10 µM [1, 7]: 31%
28 |  | CC[C@H](C)[C@H](N)C(=O)N[C@@H](CCCCN)C(=O)N1CCC[C@H]1C(=O)N[C@@H](Cc1ccccc1)C(=O)O [IKPF] (H-IKPF-OH) | 
 | 26 | CC[C@H](C)[C@H](NC(C)=O)C(=O)N[C@@H](Cc1c[nH]cn1)C(=O)N1CCC[C@H]1C(=O)N[C@@H](Cc1ccccc1)C(N)=O [N-acetylated/C-amidated IHPF] (Ac-IHPF-NH2) | 
 | 78 | CC(=O)N1CCC[C@H]1C(=O)N[C@@H](Cc1ccc(O)cc1)C(=O)N[C@H](C(=O)N[C@@H](Cc1ccccc1)C(=O)O)C(C)C [N-acetylated PYVF] (Ac-PYVF-OH) | inhibition at 10 µM [1, 7]: 18%
 | 98 | CC(=O)N[C@H](C(=O)N[C@@H](Cc1ccc(O)cc1)C(=O)N1CCC[C@H]1C(=O)N[C@@H](Cc1ccccc1)C(=O)O)C(C)C [N-acetylated VYPF] (Ac-VYPF-OH) | inhibition at 10 µM [1, 7]: 79%
33 |  | CC[C@H](C)[C@H](N)C(=O)N[C@@H](CCCNC(=N)N)C(=O)N1CCC[C@H]1C(=O)N[C@@H](Cc1ccccc1)C(=O)O [IRPF] (H-IRPF-OH) | 
87 | 84 | CC[C@H](C)[C@H](N)C(=O)N[C@@H](Cc1ccc(O)cc1)C(=O)N1CCC[C@H]1C(=O)N[C@@H](Cc1ccccc1)C(=O)O [IYPF] (H-IYPF-OH) | inhibition at 10 µM [1, 7]: 35%
40 |  | CC[C@H](C)[C@H](N)C(=O)N[C@@H](Cc1c[nH]c2ccccc12)C(=O)N1CCC[C@H]1C(=O)N[C@@H](Cc1ccccc1)C(=O)O [IWPF] (H-IWPF-OH) | 
 | 18 | CC[C@H](C)[C@H](NC(C)=O)C(=O)N[C@@H](Cc1ccc(O)cc1)C(=O)N1CCC[C@H]1C(=O)N[C@@H](Cc1ccccc1)C(N)=O [N-acetylated/C-amidated IYPF] (Ac-IYPF-NH2) | 
1 |  | CC[C@H](C)[C@H](N)C(=O)N[C@@H](Cc1c[nH]cn1)C(=O)N[C@@H](Cc1ccc(O)cc1)C(=O)N[C@@H](Cc1ccccc1)C(=O)O [IHYF] (H-IHYF-OH) | 
50 |  | CC[C@H](C)[C@H](N)C(=O)N[C@@H](Cc1c[nH]cn1)C(=O)N1CCC[C@H]1C(=O)N[C@@H](Cc1ccc(O)cc1)C(=O)O [IHPY] (H-IHPY-OH) | 
41 |  | CC[C@H](C)[C@H](N)C(=O)N[C@@H](Cc1c[nH]cn1)C(=O)N1CCC[C@H]1C(=O)NCC(=O)O [IHPG] (H-IHPG-OH) | 
0 |  | CC[C@H](C)[C@H](N)C(=O)N[C@@H](Cc1c[nH]cn1)C(=O)N[C@@H](Cc1c[nH]c2ccccc12)C(=O)N[C@@H](Cc1ccccc1)C(=O)O [IHWF] (H-IHWF-OH) | 
 | 87 | CC[C@H](C)[C@H](NC(C)=O)C(=O)N[C@@H](Cc1c[nH]cn1)C(=O)N1CCC[C@H]1C(=O)N[C@@H](Cc1ccccc1)C(=O)O [N-acetylated IHPF] (Ac-IHPF-OH) | inhibition at 10 µM [1, 7]: 41%
